Results from PMC11994961, “In Vivo pharmacokinetic interactions of ribociclib with rivaroxaban and apixaban in rats: implications for increased drug exposure and dose adjustments” (Frontiers in Pharmacology, 2025).

Legend:
[1] = Stability of ribociclib QC samples in rat plasma; assay type: in vitro ADME; conditions: room temperature, autosampler 15°C, −80°C, three freeze-thaw cycles
Protocol: The method was validated per the guidelines of the Food and Drug Administration (US-FDA, 2022) and Chinese Pharmacopoeia (2020). Selectivity was determined by analyzing blank plasma samples from six different batches of rats and plasma samples from six different batches of rats after administration of ribociclib. There should be no interference, with retention times such that the blank plasma peak area is less than 5% of the internal standard (IS) and less than 20% of the lower limit of quantification (LLOQ). The calibration curves were evaluated using 10–4,000 ng/mL of ribociclib. Linearity was assessed by plotting the peak area ratios of the analyte to the IS against nominal concentrations, using weighted (1/x^2) least-squares linear regression. Accuracy and precision were determined for all concentrations derived from the calibration curves, ensuring that deviations were within 15% of the nominal concentration, except for the LLOQ, where the deviation should not exceed 20%. Precision and accuracy were assessed by analyzing plasma samples at low, medium, high, and LLOQ concentration levels over three consecutive days. The final precision and accuracy were determined by calculating the relative standard deviation (RSD) and relative error (RE) of the six samples. RSD and RE for QC concentrations were required to be within ±15%, and for the LLOQ, within ±20%. […]

[2] = test system: Cyp3a1(CYP3A4) mRNA in the liver; experiment: qRT-PCR mRNA expression in rat liver after ribociclib; assay type: in vivo; conditions: rats, ribociclib continuously for 8 days
Excerpt: qRT-PCR analysis was used to determine the mRNA levels of Cyp3a1(CYP3A4) in the liver and Abcb1a (P-gp), Cyp3a1(CYP3A4), Abcg2(BCRP) in the intestines. Total RNA was extracted from frozen liver and intestine samples using the TRNzol Universal reagent, following the manufacturer’s instructions. The Bio Tek Epoch (Bio Tek Instruments, Inc., Winooski, VT, United States) was used to quantify the purity and concentration of the total RNA, based on the ratio of the absorbance at 260 and 280 nm. The RNA samples, each containing 1 µg of material, were converted to complementary DNA (cDNA) using the FastKing RT Kit. The real-time PCR assays were performed using a two-step amplification protocol on the SLAN-96S Real-Time PCR system (Shanghai Hongshi Medical Technology Co., Ltd., Shanghai, China). […] was employed as an internal control, and the PCR cycling criteria were as follows: 95°C for 15 min, followed by 40 cycles of 95°C for 10 s and 60°C for 32 s.

[3] = set-up: method as in Kvasnicka et al., 2017; conditions: ref Kvasnicka et al., 2017; cited from earlier work
CYP3A4/5 = test system: CYP3A4/5; set-up: method as in Mueck et al., 2013; conditions: ref Mueck et al., 2013; cited from earlier work

Compound	stability of QC samples [1]	mRNA expression of Cyp3a1 in the liver [2]	time to maximum plasma concentration (Cmax) after administration [3] [h]	share of total elimination by CYP3A4/5 (CYP3A4/5)
CN(C)C(=O)c1cc2cnc(Nc3ccc(N4CCNCC4)cn3)nc2n1C1CCCC1 [RIBO, ribociclib]	excellent stability	no significant changes		
O=C(NC[C@H]1CN(c2ccc(N3CCOCC3=O)cc2)C(=O)O1)c1ccc(Cl)s1 [RIVA, rivaroxaban]			2 to 4	approximately 18%
